The values below come from patent US8044211B2 (Chroma Therapeutics Ltd., priority 2006, dated 2011).

One assay deals with THP-1 TNFα release. Nature of the assay: LPS-stimulation of THP-1 cells, TNF-α by ELISA. The settings on record: IC50 range, LPS 1 μg/ml, 6 hrs, read-out: Inhibitor activity versus THP-1 TNFα release. Type of assay: cell-based. How it is done:
THP-1 cells were plated in 100 μl at a density of 4×10^4 cells/well in V-bottomed 96 well tissue culture treated plates and incubated at 37° C. in 5% CO2 for 16 hrs. 2 hrs after the addition of the inhibitor in […], of tissue culture media, the cells were stimulated with LPS (E. coli strain 005:B5, Sigma) at a final concentration of 1 μg/ml and incubated at 37° C. in 5% CO2 for 6 hrs. TNF-α levels were measured from cell-free supernatants by sandwich ELISA (R&D Systems #QTA00B).

The next assay addresses T1, p38 MAP Kinase a (Homo sapiens, UniProt Q16539).
T1 construct: purchased Upstate (Dundee UK)
Nature of the assay: p38 MAP Kinase activity, radiometric filter-binding assay (Upstate). Format: biochemical. The following applies: IC50 range; ATP at or close to Km; read-out: Inhibitor activity versus p38 MAPKa. How it is done:
The ability of compounds to inhibit p38 MAP a Kinase activity was measured in an assay performed by Upstate (Dundee UK). In a final reaction volume of 25 μL, p38 MAP Kinase a (5-10 mU) is incubated with 25 mM Tris pH 7.5, 0.002 mMEGTA, 0.33 mg/mL myelin basic protein, 10 mM MgAcetate and [g-33P-ATP] (specific activity approx. 500 cpm/pmol, concentration as required). The reaction is initiated by the addition of the MgATP mix. After incubation for 40 minutes at room temperature, the reaction is stopped by the addition of 5 μL of a 3% phosphoric acid solution. 10 μL of the reaction is then spotted onto a P30 filtermat and washed three times for 5 minutes in 75 mM phosphoric acid and once in methanol prior to drying and scintillation counting.
Duplicate data points are generated from a ⅓ log dilution series of a stock solution in DMSO. Nine dilutions steps are made from a top concentration of 10 μM, and a ‘no compound’ blank is included. The standard radiometric filter-binding assay is performed at an ATP concentration at, or close to, the Km. Data from scintillation counts are collected and subjected to free-fit analysis by Prism software. From the curve generated, the concentration giving 50% inhibition is determined and reported.

Where two headings read alike, the source gives them in different places.

T1 sequence (Q16539 whole entry): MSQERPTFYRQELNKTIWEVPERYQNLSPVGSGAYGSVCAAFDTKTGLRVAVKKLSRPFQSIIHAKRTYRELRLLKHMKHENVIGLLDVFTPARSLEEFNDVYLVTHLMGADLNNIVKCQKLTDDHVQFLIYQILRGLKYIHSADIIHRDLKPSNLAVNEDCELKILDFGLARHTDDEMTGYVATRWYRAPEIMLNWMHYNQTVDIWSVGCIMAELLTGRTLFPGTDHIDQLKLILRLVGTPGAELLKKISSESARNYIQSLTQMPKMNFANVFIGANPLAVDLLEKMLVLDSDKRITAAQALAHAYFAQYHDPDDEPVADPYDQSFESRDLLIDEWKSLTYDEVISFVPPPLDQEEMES

`Nc1c(C(=O)c2ccc(F)cc2)ccc(=O)n1C1CCC(N[C@@H](Cc2ccccc2)C(=O)OC2CCCC2)CC1` (single isomer, unassigned) [Example 34]: the IC50 with THP-1 TNFα release (Homo sapiens, THP-1) was above 1000 nM; at p38 MAP Kinase a, 100 to 1000 nM.
In the case of `Nc1c(C(=O)c2ccc(F)cc2)ccc(=O)n1C1CCC(N[C@@H](Cc2ccccc2)C(=O)OC2CCCC2)CC1` (single isomer, unassigned) [Example 35], the IC50 with THP-1 TNFα release is above 1000 nM; on p38 MAP Kinase a it was 100 to 1000 nM.
Take `Nc1c(C(=O)c2ccc(F)cc2)ccc(=O)n1-c1ccc(CN[C@H](C(=O)OC2CCCC2)c2ccccc2)cc1` [Example 1, Cyclopentyl(S)-{4-[6-Amino-5-(4-fluorobenzoyl)-2-oxo-2H-pyridin-1-yl]benzylamino}phenylacetate]: the IC50 in the assay on THP-1 TNFα release (Homo sapiens, THP-1) is above 1000 nM; at p38 MAP Kinase a it was 100 to 1000 nM.
In the same order, the values of `Nc1c(C(=O)c2ccc(F)cc2)ccc(=O)n1-c1ccc(CN[C@@H](Cc2ccccc2)C(=O)OC2CCCC2)cc1` [Example 2, Cyclopentyl(S)-2-{4-[6-Amino-5-(4-fluorobenzoyl)-2-oxo-2H-pyridin-1-yl]benzylamino}-3-phenylpropionate] are above 1000 nM and 100 to 1000 nM.
The corresponding values for `Cc1cc(C(=O)c2ccc(=O)n(-c3ccc(CN[C@H](C(=O)OC4CCCC4)c4ccccc4)cc3)c2N)ccc1F` [Example 4, Cyclopentyl(S)-{4-[6-Amino-5-(3-methyl-4-fluorobenzoyl)-2-oxo-2H-pyridin-1-yl]benzylamino}phenylacetate] are above 1000 nM and 100 to 1000 nM.
In the same order, the values of `Cc1cc(C(=O)c2ccc(=O)n(-c3ccc(CN[C@@H](Cc4ccccc4)C(=O)OC4CCCC4)cc3)c2N)ccc1F` [Example 5, Cyclopentyl(S)-2-{4-[6-Amino-5-(3-methyl-4-fluorobenzoyl)-2-oxo-2H-pyridin-1-yl]benzylamino}-3-phenylpropionate] are above 1000 nM and 100 to 1000 nM.
As for `Cc1cc(C(=O)c2ccc(=O)n(-c3ccc(CN[C@@H](CC(C)C)C(=O)OC4CCCC4)cc3)c2N)ccc1F` [Example 6, Cyclopentyl(S)-2-{4-[6-Amino-5-(3-Methyl-4-fluorobenzoyl)-2-oxo-2H-pyridin-1-yl]benzylamino}-4-methylpentanoate], the IC50 in the assay with THP-1 TNFα release (Homo sapiens, THP-1) was above 1000 nM; at p38 MAP Kinase a it was 100 to 1000 nM.
The corresponding values for `Nc1c(C(=O)c2ccc(F)cc2F)ccc(=O)n1-c1ccc(CN[C@H](C(=O)OC2CCCC2)c2ccccc2)cc1` [Example 7, Cyclopentyl(S)-{4-[6-Amino-5-(2,4-difluorobenzoyl)-2-oxo-2H-pyridin-1-yl]benzylamino}phenylacetate] are above 1000 nM and below 100 nM.
The corresponding values for `Nc1c(C(=O)c2ccc(F)cc2F)ccc(=O)n1-c1ccc(CN[C@@H](Cc2ccccc2)C(=O)OC2CCCC2)cc1` [Example 8, Cyclopentyl(S)-2-{4-[6-Amino-5-(2,4-difluorobenzoyl)-2-oxo-2H-pyridin-1-yl]benzylamino}-3-phenylpropionate] are 100 to 1000 nM and below 100 nM.
The corresponding values for `Cc1cc(C(=O)c2ccc(=O)n(-c3ccc(OCCCN[C@@H](Cc4ccccc4)C(=O)OC4CCCC4)cc3)c2N)ccc1F` [Example 12, Cyclopentyl(S)-2-(3-{4-[6-Amino-5-(3-methyl-4-fluorobenzoyl)-2-oxo-2H-pyridin-1-yl]phenoxy}propylamino)-3-phenyl propionate] are 100 to 1000 nM and below 100 nM.
Take `Nc1c(C(=O)c2ccc(F)cc2)ccc(=O)n1-c1c(F)cc(OCCCN[C@H](C(=O)OC2CCCC2)c2ccccc2)cc1F` [Example 13, Cyclopentyl(S)-(3-{4-[6-Amino-5-(4-fluorobenzoyl)-2-oxo-2H-pyridin-1-yl]-3,5-difluorophenoxy}propylamino)phenylacetate]: the IC50 is below 100 nM in the assay with THP-1 TNFα release (Homo sapiens, THP-1) and below 100 nM at p38 MAP Kinase a.
Regarding `Nc1c(C(=O)c2ccc(F)cc2)ccc(=O)n1-c1c(F)cc(OCCCN[C@@H](Cc2ccccc2)C(=O)OC2CCCC2)cc1F` [Example 14], the IC50 with THP-1 TNFα release (Homo sapiens, THP-1) was below 100 nM; at p38 MAP Kinase a, below 100 nM.
For `CCOC(=O)[C@H](CC(C)C)NCCCOc1cc(F)c(-n2c(N)c(C(=O)c3ccc(F)cc3)ccc2=O)c(F)c1` [Example 16, Ethyl N-(3-{4-[6-amino-5-(4-fluorobenzoyl)-2-oxopyridin-1(2H)-yl]-3,5-difluorophenoxy}propyl)-L-leucinate], the IC50 with THP-1 TNFα release (Homo sapiens, THP-1) was below 100 nM; at p38 MAP Kinase a, below 100 nM.
As for `Cc1cc(C(=O)c2ccc(=O)n(-c3c(F)cc(OCCCN[C@H](C(=O)OC4CCCC4)c4ccccc4)cc3F)c2N)ccc1F` [Example 17, Cyclopentyl(S)-(3-{4-[6-Amino-5-(4-fluoro-3-methylbenzoyl)-2-oxo-2H-pyridin-1-yl]-3,5-difluorophenoxy}propylamino) phenylacetate], the IC50 was below 100 nM with THP-1 TNFα release (Homo sapiens, THP-1) and below 100 nM on p38 MAP Kinase a.
In the case of `Cc1cc(C(=O)c2ccc(=O)n(-c3c(F)cc(OCCCN[C@@H](Cc4ccccc4)C(=O)OC4CCCC4)cc3F)c2N)ccc1F` [Example 18, Cyclopentyl(S)-2-(3-{4-[6-Amino-5-(4-fluoro-3-methylbenzoyl)-2-oxo-2H-pyridin-1-yl]-3,5-difluorophenoxy}propylamino)-3-phenylpropionate], the IC50 in the assay on THP-1 TNFα release (Homo sapiens, THP-1) was below 100 nM; at p38 MAP Kinase a, below 100 nM.
For `Nc1c(C(=O)c2ccc(F)cc2)ccc(=O)n1-c1ccc(OCCCN[C@H](C(=O)OC2CCCC2)c2ccccc2)cc1` [Example 23, Cyclopentyl(S)-(3-{4-[6-Amino-5-(4-fluorobenzoyl)-2-oxo-2H-pyridin-1-yl]-phenoxy}propylamino)phenylacetate], the IC50 is 100 to 1000 nM with THP-1 TNFα release (Homo sapiens, THP-1) and below 100 nM on p38 MAP Kinase a.
Consider `Nc1c(C(=O)c2ccc(F)cc2)ccc(=O)n1C1CCC(N[C@@H](Cc2ccccc2)C(=O)O)CC1` (stereo partly drawn) [Example 105, (S)-2-{4-[6-Amino-5-(4-fluorobenzoyl)-2-oxo-2H-pyridin-1-yl]cyclohexylamino}-3-phenylpropionic acid], for which, at p38 MAP Kinase a, the IC50 was in the range of 100 to 1000 nM.
Same read-out and setting: in the case of `Nc1c(C(=O)c2ccc(F)cc2F)ccc(=O)n1-c1c(F)cc(OCCCN[C@@H](C(=O)O)c2ccccc2)cc1F` [Example 106, (R)-(3-{4-[6-Amino-5-(2,4-difluorobenzoyl)-2-oxo-2H-pyridin-1-yl]-3,5-difluorophenoxy}propylamino)phenyl acetic acid] it was below 100 nM; in that of `Nc1c(C(=O)c2ccc(F)cc2F)ccc(=O)n1-c1c(F)cc(OCCCN[C@H](C(=O)O)C2CCCCC2)cc1F` [Example 107, (2S)-[(3-{4-[6-amino-5-(2,4-difluorobenzoyl)-2-oxopyridin-1(2H)-yl]-3,5-difluorophenoxy}propyl)amino](cyclohexyl)acetic acid], below 100 nM.
The same measure, in the same setting: next, `CC(C)C[C@@H](NCCCOc1cc(F)c(-n2c(N)c(C(=O)c3ccc(F)cc3F)ccc2=O)c(F)c1)C(=O)O` [Example 108, N-(3-{4-[6-amino-5-(2,4-difluorobenzoyl)-2-oxopyridin-1(2H)-yl]-3,5-difluorophenoxy}propyl)-D-leucine]: below 100 nM; `CC(C)C[C@H](NCCCCCOc1cc(F)c(-n2c(N)c(C(=O)c3ccc(F)cc3)ccc2=O)c(F)c1)C(=O)O` [Example 109, N-(5-{4-[6-amino-5-(4-fluorobenzoyl)-2-oxopyridin-1(2H)-yl]-3,5-difluorophenoxy}pentyl)-L-leucine]: below 100 nM; `CC(C)C[C@H](NC(=O)COc1ccc(-n2c(N)c(C(=O)c3ccc(F)cc3)ccc2=O)cc1)C(=O)O` [Example 110, N-({4-[6-Amino-5-(4-fluorobenzoyl)-2-oxopyridin-1(2H)-yl]phenoxy}-acetyl)-L-leucine]: 100 to 1000 nM.
In the case of `CC(C)C[C@H](NCCc1ccc(-n2c(N)c(C(=O)c3ccc(F)cc3)ccc2=O)cc1)C(=O)O` [Example 111, N-[2-(4-{6-amino-5-[(4-fluorophenyl)carbonyl]-2-oxopyridin-1 (2H)-yl}phenyl)ethyl]-L-leucine], the IC50 on p38 MAP Kinase a is 100 to 1000 nM.
Still for that read-out and setting: in the case of `CC(C)C[C@H](NCCCCCOc1cc(F)c(-n2c(N)c(C(=O)c3ccc(F)cc3F)ccc2=O)c(F)c1)C(=O)O` [Example 116, N-(5-{4-[6-amino-5-(2,4-difluorobenzoyl)-2-oxopyridin-1(2H)-yl]-3,5-difluorophenoxy}pentyl)-L-leucine] it was below 100 nM; in that of `CC(C)C[C@H](NCCc1ccc(-n2c(N)c(C(=O)c3ccc(F)cc3F)ccc2=O)cc1)C(=O)O` [Example 117, N-[2-(4-{6-amino-5-[(2,4-difluorophenyl)carbonyl]-2-oxopyridin-1(2H)-yl}phenyl)ethyl]-L-leucine], below 100 nM; in that of `Nc1c(C(=O)c2ccc(F)cc2)ccc(=O)n1-c1ccc(CCN[C@H](C(=O)O)c2ccccc2)cc1` [Example 118], below 100 nM.
